{"source": "patent US20060069132A1", "about": "“Azolecarboxamide herbicides” (priority 2004, published 2006)", "key": {"rice [1]": {"tested_on": "rice", "experiment": "Test B flooded paddy test", "type": "in vivo, Oryza sativa", "settings": "1000 g ai/ha, scale 0 to 100 (0 no effect, 100 complete control)", "procedure,_shortened": "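Read-out: visual comparison with controls, scored 0 to 100, where 100 means complete control and 0 no effect. Formulated chemicals were applied postemergence to plants 2–18 cm tall (1- to 4-leaf), or to flooded-paddy plants at the 2-leaf stage, then held 13 to 15 days under glass.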"}, "ducksalad": {"tested_on": "ducksalad", "experiment": "Test B flooded paddy test", "type": "in vivo, Heteranthera limosa", "settings": "1000 g ai/ha, scale 0 to 100 (0 no effect, 100 complete control)", "procedure,_shortened": "(§1)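 Treated at 2-leaf (paddy) or 1–4-leaf, 2–18 cm (postemergence); greenhouse 13–15 d; visual score vs control, 0 none to 100 complete control; dash = not tested.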"}, "pigweed": {"tested_on": "pigweed", "experiment": "Test B pre-/postemergence herbicide test", "type": "in vivo, Amaranthus retroflexus", "settings": "for Pigweed plant response rating: postemergence", "procedure,_shortened": "(§2)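 Visual rating, 0 (no effect) to 100 (complete control), versus untreated controls after 13–15 d in greenhouse. Pre- and postemergence applications (postemergence plants 2–18 cm, 1–4 leaves); flooded paddy arm at 2-leaf stage. Compounds in non-phytotoxic solvent plus surfactant.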"}, "cocklebur": {"tested_on": "cocklebur", "experiment": "Test B pre-/postemergence herbicide test", "type": "in vivo, Xanthium strumarium", "settings": "for Cocklebur plant response rating: postemergence, scale 0 (no effect) to 100 (complete control)", "procedure,_shortened": "(§3)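 Herbicidal effect was judged by eye on a 0–100 scale after plants stood 13 to 15 days in the greenhouse following pre- or postemergence treatment with surfactant-containing formulations.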"}, "wild oat": {"tested_on": "wild oat", "experiment": "Test B postemergence herbicide test", "type": "in vivo, Avena fatua", "settings": "postemergence", "procedure,_shortened": "(§4)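 Plants grow to 1- to 4-leaf stage (2–18 cm) for postemergence spraying, or to 2-leaf stage for the paddy test. Formulated compound is applied. Greenhouse holding lasts 13–15 days. Response is scored visually relative to controls, 0 no effect to 100 complete control; a dash means no result.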"}, "wheat": {"tested_on": "wheat", "experiment": "Test B postemergence herbicide test", "type": "in vivo, Triticum aestivum", "design": "key to Wheat plant response rating: 0 = no effect, 100 = complete control", "settings": "postemergence", "procedure,_shortened": "as §4"}, "rice [2]": {"tested_on": "rice", "experiment": "Test B pre-/postemergence herbicide test", "type": "in vivo, Oryza sativa", "settings": "0 = no effect, 100 = complete control, preemergence", "procedure,_shortened": "as §2"}, "large crabgrass": {"tested_on": "large crabgrass", "experiment": "Test B pre-/postemergence herbicide test", "type": "in vivo, Digitaria sanguinalis", "settings": "for Crabgrass, Large plant response rating: postemergence", "procedure,_shortened": "as §2"}, "[3]": {"tested_on": "small flower umbrella sedge", "experiment": "Test B flooded paddy test", "type": "in vivo, Cyperus difformis", "settings": "1000 g ai/ha, scale 0 to 100 (0 no effect, 100 complete control)", "procedure,_shortened": "as §1"}, "blackgrass": {"tested_on": "blackgrass", "experiment": "Test B postemergence herbicide test", "type": "in vivo, Alopecurus myosuroides", "settings": "postemergence, visual rating, scale 0 (no effect) to 100 (complete control)", "procedure,_shortened": "as §1"}, "giant foxtail": {"tested_on": "giant foxtail", "experiment": "Test B pre-/postemergence herbicide test", "type": "in vivo, Setaria faberi", "settings": "for Foxtail, Giant plant response rating: postemergence", "procedure,_shortened": "as §2"}, "Surinam grass": {"tested_on": "Surinam grass", "experiment": "Test B pre-/postemergence herbicide test", "type": "in vivo, Urochloa decumbens", "settings": "for Surinam Grass plant response rating: postemergence", "procedure,_shortened": "as §2"}, "lambsquarters": {"tested_on": "lambsquarters", "experiment": "Test B pre-/postemergence herbicide test", "type": "in vivo, Chenopodium album", "settings": "for Lambsquarters plant response rating: postemergence", "procedure,_shortened": "as §2"}, "corn": {"tested_on": "corn", "experiment": "Test B pre-/postemergence herbicide test", "type": "in vivo, Zea mays", "settings": "for Corn plant response rating: postemergence", "procedure,_shortened": "as §2"}, "velvetleaf": {"tested_on": "velvetleaf", "experiment": "Test B pre-/postemergence herbicide test", "type": "in vivo, Abutilon theophrasti", "settings": "for Velvetleaf plant response rating: postemergence", "procedure,_shortened": "as §2"}, "barnyardgrass [4]": {"tested_on": "barnyardgrass", "experiment": "Test B flooded paddy test", "type": "in vivo, Echinochloa crus-galli", "settings": "1000 g ai/ha, scale 0 to 100 (0 no effect, 100 complete control)", "procedure,_shortened": "as §1"}, "barnyardgrass [5]": {"tested_on": "barnyardgrass", "experiment": "Test B pre-/postemergence herbicide test", "type": "in vivo, Echinochloa crus-galli", "settings": "for Barnyardgrass plant response rating: postemergence, scale 0 (no effect) to 100 (complete control)", "procedure,_shortened": "as §3"}, "morningglory": {"tested_on": "morningglory", "experiment": "Test B pre-/postemergence herbicide test", "type": "in vivo, Ipomoea coccinea", "settings": "for Morningglory plant response rating: postemergence", "procedure,_shortened": "as §3"}, "[6]": {"settings": "125 g ai/ha, 0 = no effect, 100 = complete control, preemergence"}, "[7]": {"settings": "500 g ai/ha, visual rating, 0 = no effect, 100 = complete control, preemergence"}, "[8]": {"settings": "125 g ai/ha, visual rating, scale 0 (no effect) to 100 (complete control)"}, "[9]": {"settings": "500 g ai/ha, scale 0 to 100, 0 is no effect, 100 is complete control"}}, "data": [{"smiles": "CCn1nc(C(C)(C)C)cc1C(=O)Nc1cccc(C(=O)N(C)OC)n1", "note": "[Compound 246]", "values": [{"measurement": "Rice plant response rating", "setting": "rice [1]", "value": 60}, {"measurement": "Ducksalad plant response rating", "setting": "ducksalad", "value": 50}, {"measurement": "Pigweed plant response rating (0 to 100 scale)", "setting": "pigweed; [6]", "value": 100}, {"measurement": "Plant response rating, Pigweed", "setting": "pigweed; [7]", "value": 100}, {"measurement": "Pigweed plant response rating", "setting": "pigweed; [8]", "value": 50}, {"measurement": "Pigweed plant response rating", "setting": "pigweed; [9]", "value": 60}, {"measurement": "Cocklebur plant response rating (0 to 100 scale)", "setting": "cocklebur; [6]", "value": 0}, {"measurement": "Plant response rating, Cocklebur", "setting": "cocklebur; [7]", "value": 0}, {"measurement": "Cocklebur plant response rating", "setting": "cocklebur; 125 g ai/ha, visual rating", "value": 20}, {"measurement": "Cocklebur plant response rating", "setting": "cocklebur; 500 g ai/ha, visual rating", "value": 30}, {"measurement": "Oat, Wild plant response rating", "setting": "wild oat; [8]", "value": 10}, {"measurement": "Oat, Wild plant response rating", "setting": "wild oat; [9]", "value": 20}, {"measurement": "Wheat plant response rating", "setting": "wheat; [8]", "value": 0}, {"measurement": "Wheat plant response rating", "setting": "wheat; [9]", "value": 30}, {"measurement": "Rice plant response rating (0 to 100 scale)", "setting": "rice [2]; 125 g ai/ha", "value": 40}, {"measurement": "Plant response rating, Rice", "setting": "rice [2]; 500 g ai/ha, visual rating", "value": 70}, {"measurement": "Crabgrass, Large plant response rating (0 to 100 scale)", "setting": "large crabgrass; [6]", "value": 70}, {"measurement": "Plant response rating, Crabgrass, Large", "setting": "large crabgrass; [7]", "value": 100}, {"measurement": "Crabgrass, Large plant response rating", "setting": "large crabgrass; [8]", "value": 10}, {"measurement": "Crabgrass, Large plant response rating", "setting": "large crabgrass; [9]", "value": 20}, {"measurement": "Sedge, Umbrella plant response rating", "setting": "[3]", "value": 50}, {"measurement": "Blackgrass plant response rating", "setting": "blackgrass; 125 g ai/ha", "value": 0}, {"measurement": "Blackgrass plant response rating", "setting": "blackgrass; 500 g ai/ha", "value": 0}, {"measurement": "Foxtail, Giant plant response rating (0 to 100 scale)", "setting": "giant foxtail; [6]", "value": 30}, {"measurement": "Plant response rating, Foxtail, Giant", "setting": "giant foxtail; [7]", "value": 90}, {"measurement": "Foxtail, Giant plant response rating", "setting": "giant foxtail; [8]", "value": 30}, {"measurement": "Foxtail, Giant plant response rating", "setting": "giant foxtail; [9]", "value": 30}, {"measurement": "Surinam Grass plant response rating (0 to 100 scale)", "setting": "Surinam grass; [6]", "value": 30}, {"measurement": "Plant response rating, Surinam Grass", "setting": "Surinam grass; [7]", "value": 80}, {"measurement": "Surinam Grass plant response rating", "setting": "Surinam grass; [8]", "value": 20}, {"measurement": "Surinam Grass plant response rating", "setting": "Surinam grass; [9]", "value": 20}, {"measurement": "Lambsquarters plant response rating (0 to 100 scale)", "setting": "lambsquarters; [6]", "value": 70}, {"measurement": "Plant response rating, Lambsquarters", "setting": "lambsquarters; [7]", "value": 100}, {"measurement": "Lambsquarters plant response rating", "setting": "lambsquarters; [8]", "value": 50}, {"measurement": "Lambsquarters plant response rating", "setting": "lambsquarters; [9]", "value": 70}, {"measurement": "Corn plant response rating (0 to 100 scale)", "setting": "corn; [6]", "value": 0}, {"measurement": "Plant response rating, Corn", "setting": "corn; [7]", "value": 20}, {"measurement": "Corn plant response rating", "setting": "corn; [8]", "value": 0}, {"measurement": "Corn plant response rating", "setting": "corn; [9]", "value": 10}, {"measurement": "Velvetleaf plant response rating (0 to 100 scale)", "setting": "velvetleaf; [6]", "value": 60}, {"measurement": "Plant response rating, Velvetleaf", "setting": "velvetleaf; [7]", "value": 90}, {"measurement": "Velvetleaf plant response rating", "setting": "velvetleaf; [8]", "value": 30}, {"measurement": "Velvetleaf plant response rating", "setting": "velvetleaf; [9]", "value": 60}, {"measurement": "Barnyardgrass plant response rating", "setting": "barnyardgrass [4]", "value": 50}, {"measurement": "Barnyardgrass plant response rating (0 to 100 scale)", "setting": "barnyardgrass [5]; [6]", "value": 60}, {"measurement": "Plant response rating, Barnyardgrass", "setting": "barnyardgrass [5]; [7]", "value": 90}, {"measurement": "Barnyardgrass plant response rating", "setting": "barnyardgrass [5]; 125 g ai/ha, visual rating", "value": 30}, {"measurement": "Barnyardgrass plant response rating", "setting": "barnyardgrass [5]; 500 g ai/ha, visual rating", "value": 70}, {"measurement": "Morningglory plant response rating (0 to 100 scale)", "setting": "morningglory; [6]", "value": 0}, {"measurement": "Plant response rating, Morningglory", "setting": "morningglory; [7]", "value": 10}, {"measurement": "Morningglory plant response rating", "setting": "morningglory; [8]", "value": 0}, {"measurement": "Morningglory plant response rating", "setting": "morningglory; [9]", "value": 10}]}]}
